Measurements from US7745474B2, “Imidazole derivatives for the treatment of gastrointestinal disorders” (AstraZeneca AB, priority 2005, dated 2010).
pEC50: −log10 of the molar value.

Molecular target: T1, GABAB receptor (GABABR1a/GABABR2 heterodimer) (Homo sapiens, UniProt O75899+Q9UBS5)
T1 construct: expressed in transfected cells
Assay: [35S]-GTPγS binding assay, potency of positive allosteric modulator on GABA EC50
Type: biochemical
Conditions: potency of the modulator: concentration required to reduce GABA's EC50 by 50%
Excerpt: GABABR1a and GABABR2 were cloned from human brain cDNA and subcloned into pCI-Neo (Promega) and pALTER-1 (Promega), respectively. A GABABR1a-Gαqi5 fusion protein expression vector was constructed using the pCI-Neo-GABABR1a cDNA plasmid and pLEC1-Gαqi5 (Molecular Devices, CA). In order to make the Gαqi5 pertussis toxin insensitive, Cys356 was mutated to Gly using standard PCR methodology with the primers 5′-[…]-3 (forward) and 5′-GCGGCCG […]-3′ (reverse). The Gαqi5mut cDNA was ligated into the BamnHI and NotI sites of pcDNA3.0 (Invitrogen). The GABABR1a coding sequence was amplified by PCR from pCI-Neo-GABABR1a using the primers, 5′-[…]-3′ (forward) and 5′-[…]-3′ (reverse) and subdloned into the BamHI site of pcDNA3.0-Gαqi5mut.
For generation of stable cell lines, CHO-K1 cells were grown in Nut mix F-12 (Ham) media supplemented with 10% FBS, 100 U/ml Penicillin and 100 μg/nl Streptomycin at 37° C. in a humidified CO2-incubator. […]
[^35S]-GTPγS binding assays were performed at 30° C. for 45 min in membrane buffer (100 mM NaCl, […], 1 mM EDTA, 50 mM HEPES, pH 7.4) containing 0.025 μg/μl of membrane protein (prepared from the cell lines described above) with 0.01% bovine serum albumin (fatty acid free), 10 μM GDP, 100 μM DTT and 0.53 nM [^35S]-GTPγS (Amersham-Pharmacia Biotech) in a final volume of 200 μl. Nonspecific binding was determined in the presence of 20 μM GTPγS. […]

T1 sequence (Q9UBS5 15-961 limits assumed): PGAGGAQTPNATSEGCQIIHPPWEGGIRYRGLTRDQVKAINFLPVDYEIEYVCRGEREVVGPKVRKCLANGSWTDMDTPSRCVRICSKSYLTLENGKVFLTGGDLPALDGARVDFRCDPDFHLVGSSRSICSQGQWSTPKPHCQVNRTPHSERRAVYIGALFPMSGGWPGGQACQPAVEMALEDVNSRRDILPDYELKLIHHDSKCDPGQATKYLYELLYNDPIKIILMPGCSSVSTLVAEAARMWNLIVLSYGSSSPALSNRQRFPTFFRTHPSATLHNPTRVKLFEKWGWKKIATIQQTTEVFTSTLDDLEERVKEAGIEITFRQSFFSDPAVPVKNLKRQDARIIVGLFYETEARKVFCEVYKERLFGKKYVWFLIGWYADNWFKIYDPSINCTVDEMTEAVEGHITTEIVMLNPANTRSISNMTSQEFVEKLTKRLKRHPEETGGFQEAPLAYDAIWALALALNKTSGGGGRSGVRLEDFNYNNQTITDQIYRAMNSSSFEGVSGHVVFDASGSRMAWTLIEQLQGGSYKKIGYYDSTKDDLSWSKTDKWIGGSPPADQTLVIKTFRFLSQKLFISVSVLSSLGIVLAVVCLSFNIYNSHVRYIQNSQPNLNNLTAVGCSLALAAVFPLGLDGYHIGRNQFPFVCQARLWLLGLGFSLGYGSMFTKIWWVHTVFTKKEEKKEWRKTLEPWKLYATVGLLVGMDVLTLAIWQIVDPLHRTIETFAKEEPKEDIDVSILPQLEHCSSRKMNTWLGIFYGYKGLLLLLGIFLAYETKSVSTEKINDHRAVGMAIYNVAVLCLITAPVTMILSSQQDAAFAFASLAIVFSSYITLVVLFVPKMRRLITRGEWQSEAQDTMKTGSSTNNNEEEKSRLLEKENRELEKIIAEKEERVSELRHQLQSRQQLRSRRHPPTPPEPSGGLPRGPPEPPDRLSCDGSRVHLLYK
T1 sequence (O75899 42-941): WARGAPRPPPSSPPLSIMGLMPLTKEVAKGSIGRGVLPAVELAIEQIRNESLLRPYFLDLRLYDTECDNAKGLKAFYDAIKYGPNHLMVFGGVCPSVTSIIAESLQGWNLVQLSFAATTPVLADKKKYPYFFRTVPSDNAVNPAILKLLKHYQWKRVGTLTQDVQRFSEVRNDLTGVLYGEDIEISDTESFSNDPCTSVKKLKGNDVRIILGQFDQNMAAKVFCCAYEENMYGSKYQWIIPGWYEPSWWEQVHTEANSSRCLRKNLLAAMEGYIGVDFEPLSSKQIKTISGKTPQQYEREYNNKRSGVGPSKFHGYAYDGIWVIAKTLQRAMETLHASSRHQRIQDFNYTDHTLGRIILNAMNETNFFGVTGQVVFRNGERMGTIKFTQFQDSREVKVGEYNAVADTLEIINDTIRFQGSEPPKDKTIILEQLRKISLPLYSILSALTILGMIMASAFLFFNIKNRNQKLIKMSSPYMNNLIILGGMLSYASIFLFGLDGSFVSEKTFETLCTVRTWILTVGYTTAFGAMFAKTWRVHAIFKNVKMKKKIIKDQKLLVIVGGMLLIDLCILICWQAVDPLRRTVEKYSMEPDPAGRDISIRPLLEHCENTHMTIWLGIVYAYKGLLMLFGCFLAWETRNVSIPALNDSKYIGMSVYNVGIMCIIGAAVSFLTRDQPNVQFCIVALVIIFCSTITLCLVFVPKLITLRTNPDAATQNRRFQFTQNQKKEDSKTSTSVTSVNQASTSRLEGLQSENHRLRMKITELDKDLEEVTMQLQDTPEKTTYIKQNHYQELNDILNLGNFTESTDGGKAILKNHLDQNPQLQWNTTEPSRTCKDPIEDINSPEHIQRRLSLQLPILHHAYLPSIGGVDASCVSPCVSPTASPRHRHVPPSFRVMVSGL

CN(C)c1nc(/N=C(/c2ccc(Cl)cc2)N2CCCC2)c(C(=O)OC(C)(C)C)n1-c1ccccc1 [Example 2, tert-butyl 4-{[(1Z)-(4-chlorophenyl)(pyrrolidin-1-yl)methylene]amino}-2-(dimethylamino)-1-phenyl-1H-imidazole-5-carboxylate]
pEC50: 5.62

CN(C)c1nc(NC(=S)C2COc3ccccc3O2)c(C(=O)OC(C)(C)C)n1-c1ccccc1 (centres unmarked) [Example 6, tert-butyl 4-[(2,3-dihydro-1,4-benzodioxin-2-ylcarbonothioyl)amino]-2-(dimethylamino)-1-phenyl-1H-imidazole-5-carboxylate]
pEC50: 5.64
